Measurements from patent publication US20140051662A1 (priority 2011, published 2014).
Like-named read-outs stand apart in the source and are kept apart here.

Key:
[1] = tested on: OPM2 cells (t(4;14) positive); assay: thymidine proliferation assay, OPM2; type: cell-based, human
Method: (§1) Multiple myeloma cell lines RPMI 8226, U266 (t(4;14) negative) and OPM2, LP1, NCI-H929 (t(4;14) positive) were cultured in RPMI medium (Gibco-BRL) supplemented with 10% fetal calf serum (FCS, Life Technologies), 100 units/ml penicillin, 100 μg/ml streptomycin, except LP1 which were cultured in DMEM (Gibco-BRL). Bone marrow plasma cells were CD138-selected using MACS systems (Miltenyi Biotec, Germany). […] [6-^3H] thymidine (Amersham Biosciences, UK) was added (1 μCi/well) for 16 hours. Thymidine incorporation was measured by liquid scintillation counting (Wallace, PerkinElmer). All experiments were performed in triplicate.

intrinsic PDGF receptor = assay: tyrosine phosphorylation in Ba/F3 cells (Western), PDGF receptor positive control; type: cell-based; conditions: FIG. 1B
[2] = tested on: U266 cells (t(4;14) negative); assay: thymidine proliferation assay, U266; type: cell-based, human
Method: as §1

[3] = tested on: NCI-H929 cells (t(4;14) positive); assay: thymidine proliferation assay, NCI-H929; type: cell-based; conditions: Homo sapiens
Method: as §1

[4] = tested on: human cord blood mast cells; conditions: cited from earlier work
[5] = tested on: fresh plasma cells from patients with t(4;14) multiple myeloma expressing FGFR3; assay: proliferation of fresh plasma cells from patients; type: cell-based, human
Method: Bone marrow plasma cells were CD138-selected using MACS systems (Miltenyi Biotec, Germany). […] [6-^3H] thymidine (Amersham Biosciences, UK) was added (1 μCi/well) for 16 hours. Thymidine incorporation was measured by liquid scintillation counting (Wallace, PerkinElmer). All experiments were performed in triplicate.

[6] = tested on: FGFR3 expressing Ba/F3 cells; assay: proliferation of FGFR3 expressing Ba/F3 cells; type: cell-based, mouse; conditions: FIG. 1A, dose-dependent
Method: [6-^3H] thymidine (Amersham Biosciences, UK) was added (1 μCi/well) for 16 hours. Thymidine incorporation was measured by liquid scintillation counting (Wallace, PerkinElmer). All experiments were performed in triplicate.

[7] = tested on: patients with relapsing or refractory multiple myeloma; assay: open-label phase 2 study, masitinib plus bortezomib/dexamethasone (VD); type: in vivo, human
From the text: Initially, this study was to investigate the safety and efficacy of masitinib administered in combination with the chemotherapy regimens of masitinib plus (dexamethasone/bortezomib/thalidomide); or masitinib plus (dexamethasone/bortezomib/adriamycin). However, after early preliminary results both these latter arms were eliminated from the study due to a tendency of higher incidence of adverse events or because these were not considered a gold standard treatment in this pathology. […] Velcade: 1.3 mg/m^2 intravenously; Level 1: Days 1 and 4; Level 2: Days 1, 4, 8 and 11 Dexamethasone: 40 mg/day, orally; Level 1: Days 1 to 4; Level 2: Days 1 to 4, 8 and 11 Adriamycin: 9 mg/m2 intravenously (bolus or perfusion); Days 1 to 4 Thalidomide: 200 mg/day, orally, once daily in the evening […] The two dosing regimens of the bortezomib plus dexamethasone combination (VD) were successively tested. After the observation that a low level of VD was well tolerated in four patients, the following patients were treated at a higher level. Included were patients with refractory or relapsing multiple myeloma: • With t(4; 14) translocation regardless of FGFR3 status, i.e. expressing FGFR3 or not; • or without a t(4; 14) translocation and relapsing within 1 year after the first line therapy including or not bone marrow transplantation. All patients were to receive combination therapy for the planned number of cycles or until disease progression, after which they could continue with masitinib plus dexamethasone in an extension phase.

[8] = tested on: patients with relapsed or refractory t(4;14) multiple myeloma
Lyn = Lyn (Homo sapiens, UniProt P07948); assay: inhibition of Lyn kinase
[9] = tested on: RPMI 8226 cells (t(4;14) negative); assay: thymidine proliferation assay, RPMI 8226; type: cell-based, human
Method: as §1

[10] = tested on: LP1 cells (t(4;14) positive); assay: thymidine proliferation assay, LP1; type: cell-based, human
Method: as §1

[11] = tested on: intracellular domain of FGFR3; assay: tyrosine phosphorylation in Ba/F3 cells (Western), FGFR3; type: cell-based, human; conditions: masitinib 1 μM, 10 ng/ml FGF
[12] = 13 patients receiving VD as second line therapy (first relapse)
[13] = cohort VD Level 2, two patients
[14] = masitinib plus VD, all 17 patients
[15] = beyond first relapse, aggressive relapse
[16] = beyond first relapse, non-aggressive relapse
[17] = masitinib plus dexamethasone combination therapy
[18] = more than two previous lines (beyond first relapse)
[19] = second line of treatment (first relapse)

Lyn, sequence (P07948 whole entry, species assumed): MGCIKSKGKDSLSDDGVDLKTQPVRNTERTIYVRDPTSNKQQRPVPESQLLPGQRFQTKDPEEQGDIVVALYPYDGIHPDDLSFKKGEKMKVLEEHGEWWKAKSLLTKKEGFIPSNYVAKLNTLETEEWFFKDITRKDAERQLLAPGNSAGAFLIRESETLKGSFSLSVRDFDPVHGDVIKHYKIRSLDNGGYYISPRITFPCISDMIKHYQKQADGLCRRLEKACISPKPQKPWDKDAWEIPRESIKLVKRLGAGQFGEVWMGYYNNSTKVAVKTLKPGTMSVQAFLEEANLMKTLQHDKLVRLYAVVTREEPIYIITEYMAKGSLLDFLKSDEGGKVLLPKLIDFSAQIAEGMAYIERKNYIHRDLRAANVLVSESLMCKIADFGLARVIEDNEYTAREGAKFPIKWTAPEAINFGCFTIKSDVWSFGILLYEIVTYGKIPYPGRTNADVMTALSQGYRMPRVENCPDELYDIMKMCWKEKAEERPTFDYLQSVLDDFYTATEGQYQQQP

Cc1ccc(NC(=O)c2ccc(CN3CCN(C)CC3)cc2)cc1Nc1nc(-c2cccnc2)cs1 [masitinib, 4-(4-methylpiperazin-1-ylmethyl)-N-[4-methyl-3-(4-pyridin-3ylthiazol-2-ylamino)phenyl]benzamide]
anti-proliferative interaction with dexamethasone ([1]; combination with dexamethasone): synergy
reduction of proliferation compared to dexamethasone alone ([1]; masitinib added to dexamethasone, 5 times less dexamethasone): 2 fold
phosphorylation of the PDGF receptor (intrinsic PDGF receptor): Inhibition
proliferation ([2]; U266, t(4;14) negative): significantly and dose-dependently decreased
anti-proliferative interaction with dexamethasone ([2]; combination with dexamethasone, U266): synergy
reduction of proliferation compared to dexamethasone alone ([2]; masitinib added to dexamethasone, 5 times less dexamethasone, U266): 7 fold
inhibition at 2 µM [3]: 50%
FcεRI-mediated degranulation [4]: inhibition
proliferation [5]: inhibited
growth of BaF3 cell expressing the intracellular kinase domain of FGFR3 [6]: inhibited
Median PFS ([7]; 4 patients treated at level 1): 2.9 months
Median OS [7, 12]: 22.3 months
Median PFS [7, 12]: 9.3 months
Median PFS ([7]; 13 patients treated at level 2): 7.4 months
Median overall survival (OS) ([7]; 13 patients treated at level 2): 20.0 months
patients with best response of partial response ([7]; VD as second line therapy, eleven of 12): 92%
Median overall survival (OS) ([7]; all patients): 18.1 months
grade 4 adverse event suspected to be treatment-related ([7]; cohort VD Level 1): No grade 4 adverse event
patients with at least one AE suspected to be treatment-related ([7]; cohort VD Level 1, 4 patients): All patients
patients with at least one AE suspected to be treatment-related ([7]; cohort VD Level 2, 8 of 13 patients): 62%
patients with a grade 3 AE suspected to be treatment-related [7, 13]: 15%
patients with at least one grade 4 AE suspected to be treatment-related [7, 13]: 15%
patients still alive at the cut-off date ([7]; five of 17 VD patients, 31 Mar. 2010): 29%
patients with a very good partial response ([7]; intent-to-treat population): five
response rate (complete response or partial response) ([7]; intent-to-treat population): 75%
patients with at least one AE suspected to be treatment-related [7, 14]: 71%
patients with at least one grade 4 AE suspected to be treatment-related [7, 14]: 12%
median progression free survival (PFS) ([7]; overall VD population): 7.4 months
response rate (complete response or partial response) ([7]; per-protocol population): 86%
Median OS ([7]; t(4;14) negative patients): 25.3 months
Median PFS ([7]; t(4;14) negative patients): 9.3 months
patients with best response of partial response ([7]; t(4;14) negative patients, three of five): 60%
Median OS ([7]; t(4;14) positive patients): 17.1 months
Median PFS ([7]; t(4;14) positive patients): 5.9 months
patients with best response of partial response ([7]; t(4;14) positive patients, 8 out of 10): 80%
patients with rashes ([8]; 2 patients): 8.3%
patients with suspected diarrhea ([8]; 10 patients): 41.7%
patients with drug-related edema ([8]; 13 patients): 54.2%
patients with nausea and/or vomiting ([8]; 16 patients, suspected AE): 66.7%
patients with suspected masitinib-related (or not assessable) adverse events ([8]; 21 of 24 patients): 87.5%
suspected masitinib-related (or not assessable) adverse events, total number ([8]; 24 patients): 145
median overall survival ([8]; all 24 patients): 19.8 months
median progression free survival (PFS) ([8]; all 24 patients): 3.9 months
survival ([8]; all patients with unsatisfactory response to previous treatment or in first relapse): at least 1 year
median overall survival [8, 15]: 8.1 months
median progression free survival (PFS) [8, 15]: 2.1 months
median overall survival [8, 16]: 25.4 months
median progression free survival (PFS) [8, 16]: 3.9 months
patients who discontinued because of AEs suspected to be masitinib-related ([8]; five patients): 20.8%
patients with severe edema ([8]; in vivo): two
patients with severe nausea ([8]; in vivo): Three
patients with Minor Response [8, 17]: 5 patients
patients with very good partial response (IMWG criteria) [8, 17]: one
response in patients with aggressive relapse [8, 17]: No response
median overall survival [8, 18]: 8.6 months
median progression free survival (PFS) [8, 18]: 3.0 months
patients still alive after 2 years ([8]; overall): 43.5%
median overall survival [8, 19]: 35.7 months
median progression free survival (PFS) [8, 19]: 9.1 months
patients with at least one suspected masitinib-related (or not assessable) serious adverse event ([8]; seven patients): 29.2%
patients with severe suspected adverse events (non-hematological grade 3/4) ([8]; seven patients): 29.2%
patients with acute renal failure ([8]; severe): two
concentrations at which the kinase is inhibited (Lyn): submicromolar
effect on proliferation [9]: no effect
inhibition at 2 µM ([10]; Homo sapiens, LP-1): 50%
anti-proliferative interaction with dexamethasone ([10]; combination with dexamethasone, FGF-activated LP1): synergy
reduction of proliferation compared to dexamethasone alone ([10]; masitinib added to dexamethasone, 5 times less dexamethasone, FGF-activated LP1): 2 fold
phosphorylation of the intracellular domain of FGFR3 [11]: inhibited
